The values below come from US20250136595A1, “ACYLATED HETEROCYCLIC QUINAZOLINE DERIVATIVES AS INHIBITORS OF ERBB2” (Enliven Inc., priority 2022, published 2025).

Assay [1] has as its target T1, phosphorylated ERBB2 (pERBB2) (Homo sapiens, UniProt P04626).
T1 construct: endogenous in cells; host or cells: BT-474
The experiment in a line: Detection of phosphorylated ERBB2 (pERBB2) by ELISA in BT-474 cells. Format: cell-based. The following applies: four hour incubation with compound. On the procedure: BT-474 cells were seeded into a 96-well at 2.0*10^4 cells/100 μl/well. Compounds were dissolved and serially diluted in DMSO. The compounds were then were added, mixed, and incubated for four hours at 37° C., 5% CO2. Compounds were added using four-fold dilutions at final concentrations ranging from 10 μM to 0.01 nM. Following the four hour incubation with compounds, cell lysates were prepared. Plates were centrifuged for 5 min at 3000 RPM, and supernatant was removed from each well. Cells were washed 3 times by resuspension in 150 μl PBS, followed by centrifugation and removal of the supernatant, as above. […] Cells were incubated with lysis buffer for 1 hour at 4° C., and then stored at -80° C. Enzyme-linked immunosorbent assays (ELISA) were performed to measure phosphorylated ERBB2 levels. […] The next day, plates were washed with PBS+0.05% Tween20 (PBST). 150 μl of 5% BSA blocking solution was added for 1 hour at room temperature, with shaking. Plates were washed with PBST. Cell lysates were thawed and 100 μl of lysate was added to the ELISA plate. The plates were incubated for 2 hours at room temperature, with shaking. […] Plates were incubated for 1 hour at room temperature, with shaking. Plates were then washed with PBST, and 100 μl TMB substrate solution (R&D Systems, cat #DY999) was added. Plate were incubated in the dark for 20 minutes at room temperature. 50 μl of Stop solution (R&D Systems, cat #DY994) (50 μl) was added to each well and mixed. Optical density at 450 nm was read on an EnSpire plate reader (Perkin Elmer). The remaining kinase activity by calculated using the following formula: % Relative activity=100×([…]). The low and high control values (“LC” and “HC”) were generated from lysate from wells without cells or with cells treated with 0.1% DMSO, respectively.
In general terms: In an ELISA, binding on a coated surface is turned into a signal by an enzyme label.

In assay [2] the target is T2, phosphorylated EGFR (pEGFR) (Homo sapiens, UniProt P00533).
T2 construct: performed to measure phosphorylated EGFR levels using A431 cells; endogenous in cells; host or cells: A431
T2 sequence (P00533 25-1210): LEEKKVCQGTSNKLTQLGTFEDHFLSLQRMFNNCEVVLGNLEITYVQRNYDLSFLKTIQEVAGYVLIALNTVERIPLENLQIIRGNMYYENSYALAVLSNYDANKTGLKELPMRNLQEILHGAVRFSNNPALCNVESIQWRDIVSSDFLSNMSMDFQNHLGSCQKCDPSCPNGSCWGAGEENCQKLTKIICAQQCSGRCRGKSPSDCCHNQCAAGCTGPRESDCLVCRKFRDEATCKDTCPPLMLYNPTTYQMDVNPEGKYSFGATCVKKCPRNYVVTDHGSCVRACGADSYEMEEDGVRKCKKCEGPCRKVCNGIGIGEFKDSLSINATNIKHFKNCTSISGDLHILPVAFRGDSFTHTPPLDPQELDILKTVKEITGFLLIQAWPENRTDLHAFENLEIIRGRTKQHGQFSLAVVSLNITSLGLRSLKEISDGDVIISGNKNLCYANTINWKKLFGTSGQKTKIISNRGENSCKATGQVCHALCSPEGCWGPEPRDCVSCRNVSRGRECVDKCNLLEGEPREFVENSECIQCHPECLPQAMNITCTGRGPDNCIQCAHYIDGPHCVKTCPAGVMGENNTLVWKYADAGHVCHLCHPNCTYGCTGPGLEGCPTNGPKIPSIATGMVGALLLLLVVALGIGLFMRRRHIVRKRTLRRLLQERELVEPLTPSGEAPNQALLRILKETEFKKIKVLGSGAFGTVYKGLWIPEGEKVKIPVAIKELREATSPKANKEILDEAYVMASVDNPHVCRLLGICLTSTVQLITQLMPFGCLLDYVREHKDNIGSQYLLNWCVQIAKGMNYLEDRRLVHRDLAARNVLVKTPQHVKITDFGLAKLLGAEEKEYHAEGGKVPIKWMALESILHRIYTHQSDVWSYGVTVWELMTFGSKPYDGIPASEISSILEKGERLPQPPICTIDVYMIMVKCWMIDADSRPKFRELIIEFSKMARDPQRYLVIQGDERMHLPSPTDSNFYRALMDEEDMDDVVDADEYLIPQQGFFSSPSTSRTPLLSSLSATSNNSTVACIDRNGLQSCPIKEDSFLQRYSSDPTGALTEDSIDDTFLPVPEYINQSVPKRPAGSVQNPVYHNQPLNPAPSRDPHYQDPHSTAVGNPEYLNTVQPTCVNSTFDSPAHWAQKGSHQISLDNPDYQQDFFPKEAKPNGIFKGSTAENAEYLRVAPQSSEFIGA
In words: Detection of phosphorylated EGFR (pEGFR) in EGF-stimulated A431 cells (AlphaLISA). Format: cell-based. The following applies: A431 cells (10% FBS), 4 hours incubation, EGF 30 ng/mL for 10 minutes. On the procedure:
Enzyme-linked immunosorbent assays (ELISA) were performed to measure phosphorylated EGFR levels using A431 cells (10% FBS). A431 (1.0*10^4 cells/40 μl/well) cells were seeded in 384 well. Compounds were dissolved in DMSO, serially diluted in DMSO and then were added, mixed, and incubated for 4 hours at 37° C., 5% CO2. Following the 4-hours incubation, cells were stimulated for 10 minutes with EGF (Invitrogen, cat #PHG0311) at a final concentration of 30 ng/mL in the incubator. The media was aspirated and cells were lysed in 10 μL lysis buffer with protease and phosphatase inhibitors (PerkinElmer, cat #ALSU-PEGFR-A50K). The plates were placed on a shaker for 5 minutes and then incubated for 30 min at 4° C. for complete lysis. The lysate was transferred to an Optiplate (Perkin Elmer, cat #6007290).
Acceptor mix (PerkinElmer, cat #ALSU-PEGFR-A50K) was prepared just before use and 5 μL was dispensed to all the wells, followed by a 1.5-2 h incubation at room temperature in dark. The donor mix (PerkinElmer, cat #ALSU-PEGFR-A50K) was prepared under low light conditions prior to use and 5 μl of donor mix was added to all the wells under subdued lighting or green filters. The plates were placed on a shaker for 5 min, sealed, and incubated overnight at room temperature in dark. Plates were read on the Envision (PerkinElmer) using standard AlphaLISA settings.
The percentage of inhibition on EGFR phosphorylation was calculated following equation: % Inhibition=100×(LumHC−LumSample)/(LumHC−LumLC). The low and high controls (LC/HC) are generated from lysate from wells with cells treated with DMSO or […] Staurosporine (BioAustralis, cat #BIA-S1086), […]. IC50 values were calculated by fitting the Curve using XLfit (v5.3.1.3), equation 201: Y=Bottom+ (Top−Bottom)/(1+10^((LogIC50−X)*HillSlope)).
Background: In Alpha technology, singlet oxygen from a donor bead excites a nearby acceptor bead.

The next assay addresses Ba/F3 ERBB2 YVMA (Homo sapiens, UniProt P04626, DUP772-775, cells depend on it). In words: Cell viability assay (CellTiter Glo) in Ba/F3 cells engineered to express ERBB2 YVMA. The format is cell-based, mouse. The following applies: Ba/F3 cells expressing human ERBB2 YVMA mutant, 72 hours, % viability, read-out: Ba/F3 ERBB2 YVMA IC50. The procedure:
Cells were treated with compounds, and cell viability was measured as a metric of kinase inhibition.
The Ba/F3 cell line is IL-3-dependent mouse cell line derived from the C3H mouse strain. Ba/F3 cell lines were engineered to express human ERBB2 or EGFR kinases, rendering the cells IL-3 independent. The lines were generated via retroviral transduction utilizing a Moloney murine leukemia virus (MMLV) promoter, and constructs are stably integrated into the cell genome. The sequences of the ERBB2 and EGFR genes used were NCBI Reference Sequences NM_004448.3 and NM_005228.3, respectively.
Similarly, Ba/F3 cell lines engineered to express EGFR, ERBB2, or ERBB2 mutants were grown, harvested, counted and seeded at 3000 cells per well in 96-well plates for the data sets shown in Tables B3-B4. A subset of wells contained media only (low control, “LC”).
Table B1 provides the growth media and number of cells seeded per well for the each cell line.
Compounds were dissolved in DMSO and serially diluted. Serially-diluted compound or a DMSO only control (high control, “HC”) was added to the plated cells in each well. […] The final proportion of DMSO never exceeded 0.1%.
Plates were placed in a 37° C., 5% CO2 incubator for 72 hours. Plates were then removed from the incubator and equilibrated for 15 minutes at room temperature. 40 μl of CellTiter Glo reagent (Promega) was added to measure the relative level of metabolically active cells by quantifying intracellular ATP concentrations. Plates were incubated for 30 minutes at room temperature, and luminescence was measured. Percent viability was normalized to a vehicle control only using the following formula: % viability=100×(Lumsample−LumLC)/(LumHC−LumLC). Graphical curves were fitted using a nonlinear regression model with a sigmoidal dose response.
On the technique in general: In ATP-based viability assays light output follows the ATP content of the culture.

T1 sequence (P04626 23-1255): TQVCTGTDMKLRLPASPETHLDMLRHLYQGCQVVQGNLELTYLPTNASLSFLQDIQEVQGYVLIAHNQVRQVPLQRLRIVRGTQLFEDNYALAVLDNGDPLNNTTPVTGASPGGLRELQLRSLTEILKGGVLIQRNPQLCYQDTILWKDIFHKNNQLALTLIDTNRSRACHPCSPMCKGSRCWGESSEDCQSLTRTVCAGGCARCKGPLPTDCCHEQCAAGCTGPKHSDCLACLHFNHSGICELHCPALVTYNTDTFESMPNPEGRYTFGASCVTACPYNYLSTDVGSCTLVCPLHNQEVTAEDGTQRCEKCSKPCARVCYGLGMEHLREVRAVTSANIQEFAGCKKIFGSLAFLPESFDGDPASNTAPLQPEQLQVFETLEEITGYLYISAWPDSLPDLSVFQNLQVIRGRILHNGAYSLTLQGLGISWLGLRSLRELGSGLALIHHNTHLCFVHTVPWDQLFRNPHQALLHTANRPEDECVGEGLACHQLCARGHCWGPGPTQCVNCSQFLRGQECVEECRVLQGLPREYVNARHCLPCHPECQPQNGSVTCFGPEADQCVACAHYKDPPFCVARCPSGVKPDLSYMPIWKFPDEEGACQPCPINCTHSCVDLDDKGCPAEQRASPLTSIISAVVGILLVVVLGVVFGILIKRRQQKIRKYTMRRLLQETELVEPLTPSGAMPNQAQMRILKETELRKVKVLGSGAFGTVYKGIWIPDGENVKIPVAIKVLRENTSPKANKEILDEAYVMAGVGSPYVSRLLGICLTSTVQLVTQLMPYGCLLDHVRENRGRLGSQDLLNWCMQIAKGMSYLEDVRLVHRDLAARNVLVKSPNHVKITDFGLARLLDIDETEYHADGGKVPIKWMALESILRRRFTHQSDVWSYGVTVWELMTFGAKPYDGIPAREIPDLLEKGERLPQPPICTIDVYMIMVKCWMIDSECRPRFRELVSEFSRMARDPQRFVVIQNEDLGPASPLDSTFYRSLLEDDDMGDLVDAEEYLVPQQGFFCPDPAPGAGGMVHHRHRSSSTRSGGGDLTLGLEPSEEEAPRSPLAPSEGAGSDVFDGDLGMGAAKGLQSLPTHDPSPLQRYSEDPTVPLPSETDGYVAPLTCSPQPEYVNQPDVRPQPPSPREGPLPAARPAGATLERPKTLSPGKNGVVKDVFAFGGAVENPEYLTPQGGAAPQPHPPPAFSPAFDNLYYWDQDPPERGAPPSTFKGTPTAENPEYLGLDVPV
Chain of Ba/F3 ERBB2 YVMA (P04626 with tags, fused parts or gaps DUP772-775): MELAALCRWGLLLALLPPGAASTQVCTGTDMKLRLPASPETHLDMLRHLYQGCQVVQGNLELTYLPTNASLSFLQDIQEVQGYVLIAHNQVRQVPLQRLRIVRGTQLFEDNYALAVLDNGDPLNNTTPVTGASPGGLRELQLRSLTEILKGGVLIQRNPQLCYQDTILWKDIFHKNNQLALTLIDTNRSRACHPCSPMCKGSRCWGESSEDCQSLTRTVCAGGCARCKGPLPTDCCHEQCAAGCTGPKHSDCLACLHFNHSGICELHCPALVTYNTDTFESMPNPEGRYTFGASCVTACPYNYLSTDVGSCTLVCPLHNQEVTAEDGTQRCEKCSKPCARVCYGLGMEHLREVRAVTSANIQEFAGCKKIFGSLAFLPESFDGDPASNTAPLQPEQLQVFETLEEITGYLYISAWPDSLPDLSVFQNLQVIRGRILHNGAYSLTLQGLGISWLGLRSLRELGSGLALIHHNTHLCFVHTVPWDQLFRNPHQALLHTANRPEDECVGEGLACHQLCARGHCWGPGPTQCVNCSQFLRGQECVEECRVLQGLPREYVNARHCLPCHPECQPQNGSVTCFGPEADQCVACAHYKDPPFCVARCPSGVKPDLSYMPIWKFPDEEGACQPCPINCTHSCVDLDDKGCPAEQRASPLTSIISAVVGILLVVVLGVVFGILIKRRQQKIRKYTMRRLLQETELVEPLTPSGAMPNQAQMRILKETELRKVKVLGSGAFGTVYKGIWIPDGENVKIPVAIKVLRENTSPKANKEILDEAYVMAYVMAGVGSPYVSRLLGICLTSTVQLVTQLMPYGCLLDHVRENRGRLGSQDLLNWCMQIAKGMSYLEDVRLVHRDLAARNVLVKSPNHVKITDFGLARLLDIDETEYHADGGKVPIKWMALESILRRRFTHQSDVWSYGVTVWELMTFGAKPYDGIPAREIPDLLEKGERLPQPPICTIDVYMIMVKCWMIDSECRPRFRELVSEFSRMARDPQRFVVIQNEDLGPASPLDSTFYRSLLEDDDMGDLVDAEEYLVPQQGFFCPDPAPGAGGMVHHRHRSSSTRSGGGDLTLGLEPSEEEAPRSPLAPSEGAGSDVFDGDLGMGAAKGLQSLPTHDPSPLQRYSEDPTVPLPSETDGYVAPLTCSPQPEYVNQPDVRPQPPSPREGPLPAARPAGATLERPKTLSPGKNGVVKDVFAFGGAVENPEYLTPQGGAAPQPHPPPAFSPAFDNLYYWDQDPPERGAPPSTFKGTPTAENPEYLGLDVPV

`CC#CC(=O)N1CCN(c2ccc3ncnc(Nc4ccc(Oc5ccn6ncnc6c5)c(C)c4)c3n2)C[C@@H]1C` [Compound 22, 1-[(2S)-2-methyl-4-{4-[(3-methyl-4-{[1,2,4]triazolo[1,5-a]pyridin-7-yloxy}phenyl)amino]pyrido[3,2-d]pyrimidin-6-yl}piperazin-1-yl]but-2-yn-1-one]: the concentration for half-maximal inhibition (IC50) (usually the concentration needed to halve the response being measured) in assay [1] was 62.8 nM; in assay [2] it was > 10000 nM. In addition, on Ba/F3 ERBB2 YVMA, the GI50 was found to be 34.9 nM.

`CC#CC(=O)N1CCN(c2ccc3ncnc(Nc4ccc(Oc5ccn6ncnc6c5)c(C)c4)c3n2)C[C@H]1C` [Compound 23, 1-[(2R)-2-methyl-4-{4-[(3-methyl-4-{[1,2,4]triazolo[1,5-a]pyridin-7-yloxy}phenyl)amino]pyrido[3,2-d]pyrimidin-6-yl}piperazin-1-yl]but-2-yn-1-one]: the IC50 is 25.2 nM in assay [1] and 530 nM in assay [2]. In addition, the GI50 on Ba/F3 ERBB2 YVMA is 7.17 nM.

Consider `CC#CC(=O)N1CCN(c2ccc3ncnc(Nc4ccc(Oc5ccn6ncnc6c5)c(C)c4)c3n2)[C@H](C)C1` [Compound 24, 1-[(3R)-3-methyl-4-{4-[(3-methyl-4-{[1,2,4]triazolo[1,5-a]pyridin-7-yloxy}phenyl)amino]pyrido[3,2-d]pyrimidin-6-yl}piperazin-1-yl]but-2-yn-1-one], for which the IC50 in assay [1] was 91.4 nM; in assay [2], > 10000 nM. Further, the GI50 on Ba/F3 ERBB2 YVMA came out at 68.9 nM.

With `CC#CC(=O)N1CCN(c2ccc3ncnc(Nc4ccc(Oc5ccn6ncnc6c5)c(C)c4)c3n2)[C@@H](C)C1` [Compound 25, 1-[(3S)-3-methyl-4-{4-[(3-methyl-4-{[1,2,4]triazolo[1,5-a]pyridin-7-yloxy}phenyl)amino]pyrido[3,2-d]pyrimidin-6-yl}piperazin-1-yl]but-2-yn-1-one], the IC50 in assay [1] is 63.5 nM; in assay [2] it was > 10000 nM. For the same molecule, on Ba/F3 ERBB2 YVMA, the GI50 is 23.4 nM.

Consider `CC#CC(=O)N1CC2CCC(C1)N2c1ccc2ncnc(Nc3ccc(Oc4ccn5ncnc5c4)c(C)c3)c2n1` [Compound 26, 1-(8-{4-[(3-methyl-4-{[1,2,4]triazolo[1,5-a]pyridin-7-yloxy}phenyl)amino]pyrido[3,2-d]pyrimidin-6-yl}-3,8-diazabicyclo[3.2.1]octan-3-yl)but-2-yn-1-one], for which the IC50 worked out at 35.5 nM in assay [1] and 2350 nM in assay [2]. In addition, the GI50 at Ba/F3 ERBB2 YVMA turned out to be 6.16 nM.

As to `CC#CC(=O)N1C2CCC1CN(c1ccc3ncnc(Nc4ccc(Oc5ccn6ncnc6c5)c(C)c4)c3n1)C2` [Compound 27, 1-(3-{4-[(3-methyl-4-{[1,2,4]triazolo[1,5-a]pyridin-7-yloxy}phenyl)amino]pyrido[3,2-d]pyrimidin-6-yl}-3,8-diazabicyclo[3.2.1]octan-8-yl)but-2-yn-1-one], the IC50 amounted to 60.4 nM in assay [1] and 2800 nM in assay [2]. Also, the GI50 on Ba/F3 ERBB2 YVMA turned out to be 27.4 nM.

With `CC#CC(=O)N1CC2CC(C1)N2c1ccc2ncnc(Nc3ccc(Oc4ccn5ncnc5c4)c(C)c3)c2n1` [Compound 28, 1-(6-{4-[(3-methyl-4-{[1,2,4]triazolo[1,5-a]pyridin-7-yloxy}phenyl)amino]pyrido[3,2-d]pyrimidin-6-yl}-3,6-diazabicyclo[3.1.1]heptan-3-yl)but-2-yn-1-one], the IC50 in assay [1] is 444 nM; in assay [2], > 10000 nM. Further, the GI50 on Ba/F3 ERBB2 YVMA was 228 nM.

`CC#CC(=O)N1CC2CC1CN2c1ccc2ncnc(Nc3ccc(Oc4ccn5ncnc5c4)c(C)c3)c2n1` (stereo not drawn) [Compound 30, 1-(5-(4-((4-([1,2,4]triazolo[1,5-a]pyridin-7-yloxy)-3-methylphenyl)amino)pyrido[3,2-d]pyrimidin-6-yl)-2,5-diazabicyclo[2.2.1]heptan-2-yl)but-2-yn-1-one]: the IC50 came to 61.4 nM in assay [1] and 2430 nM in assay [2]. The GI50 at Ba/F3 ERBB2 YVMA is 21.2 nM.

With `CC#CC(=O)N1CCN(c2ccc3ncnc(Nc4ccc(Oc5ccc6c(c5)ncn6C)c(C)c4)c3n2)CC1` [Compound 31, 1-{4-[4-({3-methyl-4-[(1-methyl-1,3-benzodiazol-5-yl)oxy]phenyl}amino)pyrido[3,2-d]pyrimidin-6-yl]piperazin-1-yl}but-2-yn-1-one], the results for the IC50 in assay [1] and in assay [2] were 29 nM and 7640 nM, respectively. Besides, the GI50 at Ba/F3 ERBB2 YVMA came out at 6.56 nM.
